Test results taken from PMC4795541, “A Rapid and Quantitative Flow Cytometry Method for the Analysis of Membrane Disruptive Antimicrobial Activity” (PLoS ONE, 2016).
Converted amounts (≈) assume the structure as drawn. Read-outs that look alike come from different tables or passages of the source. Marks after values point to notes of the source that are not given here. Where no end group is shown, it is not given here.

Assays:
S. mutans Ingbritt [1] = tested on: S. mutans Ingbritt
Excerpt: (§1) The bacterial strains; Fusobacterium nucleatum ATCC 25586, Streptococcus mutans Ingbritt, Staphylococcus aureus (MSSA) ATCC 29213; Staphylococcus aureus (MRSA) ATCC 43300; Enterococcus faecalis ATCC 29212; Enterobacter aerogenes ATCC 13048; Pseudomonas aeruginosa strain PAO1-LAC, ATCC 47085; Klebsiella pneumoniae ATCC 13883; Acinetobacter baumannii strain 2208, ATCC 19606; Escherichia coli ATCC 25922 lyophilised or glycerol stocks were obtained from the culture collection of the Oral Health Cooperative Research Centre, The Melbourne Dental School, University of Melbourne, Australia. These strains were selected for this study as they are widely used in antimicrobial studies and are considered to be important pathogens and major targets for antibiotic resistant studies. Bacteria were grown aerobically and maintained by passage at ambient temperature (E. coli, K. pneumoniae, A. baumannii and S. aureus strains) or at 37°C (P. aeruginosa, E. faecalis and E. aerogenes) on horse blood agar (10% v/v defibrinated horse blood, 4.4% w/v Oxoid Blood Agar Base No. 2). S. mutans and F. nucleatum were grown anaerobically (MK3 anaerobic workstation, Don Whitley Scientific Limited, England) and maintained by passage at 37°C on Todd Hewitt agar (3.6% w/v Oxoid Todd-Hewitt Broth, 1.5% w/v sucrose, 1.5% w/v BactoTM Agar, 0.8% w/v Oxoid Yeast Extract) or horse blood agar, respectively. For the antimicrobial peptide assays a 20 mL starter culture was produced by taking single colonies from blood or Todd Hewitt agar plates, respectively, to inoculate either: Luria Broth (LB; 1% w/v BactoTM Tryptone, 1% w/v NaCl, 0.5% w/v Oxoid Yeast Extract, pH 7.5, Thermo Scientific Pty, Ltd, Sydney, Australia) for bacteria; E. coli, K. pneumoniae, P. aeruginosa, A. baumannii, E. faecalis, E. aerogenes and S. aureus which were grown aerobically at 37°C, or Todd Hewitt broth (3.6% w/v Oxoid Todd-Hewitt Broth, 1.5% w/v sucrose, 0.8% w/v Oxoid Yeast 9 Extract) for S. mutans, or Brain Heart Infusion broth (BHI; 3.7% w/v Oxoid BHI, 0.05% w/v L-cysteine) for F. nucleatum which were both grown anaerobically at 37°C. After overnight incubation, 0.5–2.0 mL of the starter culture was used to inoculate the appropriate fresh broth (200 mL) and growth monitored at 650 nm using a spectrophotometer (model 275E; Perkin-Elmer, Sydney, Australia) with culture purity checked by microscopic examination and culture. Bacteria were harvested during late exponential growth phase and viability and bacteria/mL determined using a BacLight viability kit (Invitrogen, Sydney, Australia) and a Quanta SC-MPL flow cytometer (Beckman coulter Pty, Ltd, Sydney, Australia).
(§2) Antibacterial assays were undertaken to determinate the minimum inhibitory concentration (MIC), minimum bactericidal concentration (MBC) and minimum membrane disruptive concentration (MDC) of each of the antimicrobial peptides (AMP) and AMP analogues (S1 Table). For each bacterim a stock solution (2.5 × 10^6 cells/mL) in the respective media was made and an aliquot incubated with AMPs within 15 minutes from viable cell count and stock preparation. All AMPs were dissolved in DMSO and a 500 μM stock solution prepared by adding the respective media and serial dilutions (250–0.244 μM) of the AMP in media (100 μL/well) made just prior addition of bacteria. […] One hundred microliter aliquots of the bacterial stock solution (2.5 × 10^5 cells/well) were added to the AMP serial dilutions and incubated at 37°C for 90 min. Assay preparation and incubations were conducted in aerobic or anaerobic conditions dependent on the bacteria. Bacteria were also incubated in the absence of AMP to serve as a growth control for the assay. After the 90 minute incubation period the antimicrobial activity (MIC, MBC and MDC) was determined as follows;
(§3) For MIC the CLSI broth microdilution assay was followed as we have previously described.

F. nucleatum ATCC 25586 [2] = tested on: F. nucleatum ATCC 25586
Excerpt: as §1, §2, §3

S. mutans Ingbritt [3] = tested on: S. mutans Ingbritt; remark: listed apart in the source
Excerpt: as §1, §2
(§4) For determination of MBC, the CLSI protocol was followed, with the modifications being that due to the rapid action of the AMPs the assay incubation time was shortened from 16–20 hours to 90 minutes.

F. nucleatum ATCC 25586 [4] = tested on: F. nucleatum ATCC 25586; remark: listed apart in the source
Excerpt: as §1, §2, §4

[5] = tested on: HEK-293 (ATCC CRL-1573) cells; test: Inhibition of cell proliferation assay (MTS); assay type: cell-based
Description: After 28 h, 20 μL of 3-(4,5-dimethylthiazol-2-yl)-5-(3-carboxymethoxyphenyl)-2-(4-sulfophenyl)-2H-tetrazolium (MTS) solution (CellTiter 96 AQueous Non-Radioactive Cell Proliferation Assay kit, Promega) were added to each well and the plates were incubated for a further 1–2 h at 37°C, 5% CO2 incubator. Cell proliferation was determined by measuring absorbance at 490 nm using a microplate reader (PerkinElmer 1420 Multilabel Counter VICTOR3). Positive and negative controls for inhibition were taken as HEK-293 cells incubated with mytomycin C (5 μg/mL, Sigma Pty Ltd) and HEK-293 cells incubated in media alone, respectively. The percentage of inhibition was calculated using the following formula: % Inhibition = [(A490 test sample—A490 negative control) / (A490 positive control—A490 negative control)] × 100
The percentage of inhibition was plotted against peptide concentration and linear regression analysis was used to determine the AMP concentration needed to inhibit 50% (IC50) of the HEK-293 cells.

sheep red blood cells = test: Hemolysis assay; assay type: cell-based
Description: Fresh sheep red blood cells in Alsever’s solution (RBCs, Equicell, Victoria, Australia) were diluted 1 in 20 in PBS (pH 7.4), pelleted by centrifugation, and washed three times in PBS (1000 g, 10 min). The RBCs were counted using a cell counter (Coulter Particle Counter Z series, Beckman Coulter) and diluted to a final concentration of 2 × 10^7 cells/mL. […] Following incubation, the RBCs were pelleted centrifuged (1000 g, 10 min) and the amount of haemoglobin in 100 μL aliquots determined by measuring the absorbance at 405 nm using a microplate reader (PerkinElmer 1420 Multilabel Counter VICTOR3). Positive and negative controls for hemolysis were taken as RBC lysed with 0.5% Triton X-100 (1:1 v/v) and RBC suspension in PBS, respectively. The percentage of hemolysis was calculated using the following formula: % Hemolysis = [(A405 test sample—A405 negative control) / (A405 positive control—A405 negative control)] × 100
The percentage hemolysis was plotted against peptide concentration and linear regression analysis was used to determine the hemolytic concentration needed to lyse 50% (HC50) of RBCs.

Compound	MIC (S. mutans Ingbritt [1]; S. mutans Ingbritt, 90 min peptide/bacteria incubation at 37°C, then growth at OD650, average of 3 assays ± SD) [µM]	MIC (F. nucleatum ATCC 25586 [2]; F. nucleatum ATCC 25586, 2.5 × 10^5 cells/well, 90 min peptide/bacteria incubation at 37°C, then growth at OD650, average of 3 assays ± SD) [µM]	average MIC/MBC value (F. nucleatum ATCC 25586 [2]; F. nucleatum, average of MIC and MBC) [µM]	MBC (S. mutans Ingbritt [3]; S. mutans Ingbritt, 90 min peptide/bacteria incubation, CFU on agar, ≥ 99.9% reduction, average of 3 assays ± SD) [µM]	MBC (F. nucleatum ATCC 25586 [4]; F. nucleatum ATCC 25586, 90 min peptide/bacteria incubation, CFU on agar, ≥ 99.9% reduction, average of 3 assays ± SD) [µM]	IC50 ([5]; HEK-293 cells 5×10^3, EMEM + 10% FBS, 28 h, MTS, A490, linear regression, maximum peptide concentration = 1000 µM) [µM]	Therapeutic Index (proliferation) ([5]; IC50/MDC50 (F. nucleatum), given as x : 1)	Therapeutic Index (hemolysis) (sheep red blood cells; HC50/MDC50 (F. nucleatum), given as x : 1)	Hemolysis (HC50) (sheep red blood cells; pH 7.4) [µM]	MIC (S. mutans Ingbritt [1]; Ingbritt, 24 h)	MIC (F. nucleatum ATCC 25586 [2]; ATCC 25586, 24 h)	MBC (S. mutans Ingbritt [3]; Ingbritt)	MBC (F. nucleatum ATCC 25586 [4]; ATCC 25586)
CC[C@H](C)[C@H](NC(=O)CN)C(=O)NCC(=O)N[C@@H](C)C(=O)N[C@H](C(=O)N[C@@H](CC(C)C)C(=O)N[C@@H](CCCCN)C(=O)N[C@H](C(=O)N[C@@H](CC(C)C)C(=O)N[C@H](C(=O)N[C@H](C(=O)NCC(=O)N[C@@H](CC(C)C)C(=O)N1CCC[C@H]1C(=O)N[C@@H](C)C(=O)N[C@@H](CC(C)C)C(=O)N[C@H](C(=O)N[C@@H](CO)C(=O)N[C@@H](Cc1c[nH]c2ccccc12)C(=O)N[C@H](C(=O)N[C@@H](CCCCN)C(=O)N[C@@H](CCCNC(=N)N)C(=O)N[C@@H](CCCCN)C(=O)N[C@@H](CCCNC(=N)N)C(=O)N[C@@H](CCC(N)=O)C(=O)N[C@@H](CCC(N)=O)C(N)=O)[C@@H](C)CC)[C@@H](C)CC)[C@@H](C)O)[C@@H](C)O)C(C)C)C(C)C [Melittin]	6.1 ± 0.9 (≈ 17.4 µg/mL)	4.4 ± 0.3 (≈ 12.5 µg/mL)	4.0	4.2 ± 2.4 (≈ 12 µg/mL)	3.8 ± 0.4 (≈ 10.8 µg/mL)								
GIGKFLHAAKKFAKAFVAEIMNS-NH2 [Ala-Magainin]						5.6 ± 1.4	14.0 : 1	24 : 1	9.6 ± 0.9	7.1±0.7^c μM	0.6±0.1^c μM	3.4±0.5^c μM	0.4±0.1^c μM
